In patent US12497365B2, “4-pyridinyl formamide compound or derivative thereof, preparation method therefor, herbicidal composition and use thereof” (Qingdao Kingagroot Chemical Compound Co., Ltd., priority 2019, dated 2025):

Tests used:
Assay in all cases: Weeding effect in post-emergence stage
Format in all cases: in vivo
Settings in all cases: active ingredient 2000 g/ha, 3 weeks after application, fresh weight control rate
[1] = tested on: Descurainia sophia
Method in brief: (§1)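 Read-out is growth control rate based on fresh weight, assessed 3 weeks after treatment in the greenhouse. Plants were sprayed at the 2-3 leaf stage with compound dissolved in acetone, plus Tween 80 and methyl oleate emulsifiable concentrate, at doses from 125 to 2000 g/ha.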

[2] = tested on: Abutilon theophrasti
Method in brief: as §1

[3] = tested on: Amaranthus retroflexus L.
Method in brief: as §1

[4] = tested on: Chenopodium album
Method in brief: as §1

| Compound | Weeding effect, activity level (growth control rate), Descurainia sophia [1] | Weeding effect, activity level (growth control rate), Abutilon theophrasti [2] | Weeding effect, activity level (growth control rate), Amaranthus retroflexus L. [3] | Weeding effect, activity level (growth control rate), Chenopodium album [4] |
| --- | --- | --- | --- | --- |
| CCCCCc1ccc(-c2nccc(C(=O)Nc3nnnn3C)c2Cl)cc1 [Compound 1-13] | 5 (Level 5: growth control rate is above 85%) | 5 (Level 5: growth control rate is above 85%) | 5 (Level 5: growth control rate is above 85%) | 5 (Level 5: growth control rate is above 85%) |
| Cn1nnnc1NC(=O)c1ccnc(OCC(F)(F)F)c1Cl [Compound 1-2062] | 5 (Level 5: growth control rate is above 85%) | 5 (Level 5: growth control rate is above 85%) | 5 (Level 5: growth control rate is above 85%) | 5 (Level 5: growth control rate is above 85%) |
| Cc1cc(Cl)ncc1-c1nccc(C(=O)Nc2nnnn2C)c1Cl [Compound 1-138] | 5 (Level 5: growth control rate is above 85%) | 5 (Level 5: growth control rate is above 85%) | 5 (Level 5: growth control rate is above 85%) | 5 (Level 5: growth control rate is above 85%) |
| Cc1c(C(=O)Nc2nnnn2C)ccnc1-c1ccc(F)cc1 [Compound 1-194] | 5 (Level 5: growth control rate is above 85%) | 5 (Level 5: growth control rate is above 85%) | 5 (Level 5: growth control rate is above 85%) | 5 (Level 5: growth control rate is above 85%) |
| Cn1nnnc1NC(=O)c1ccnc(-c2ccc(Br)nc2)c1Cl [Compound 1-131] | 5 (Level 5: growth control rate is above 85%) | 5 (Level 5: growth control rate is above 85%) | 5 (Level 5: growth control rate is above 85%) | 5 (Level 5: growth control rate is above 85%) |
| COc1ccc(-c2nccc(C(=O)Nc3nnnn3C)c2Cl)c(OC)c1 [Compound 1-105] | 5 (Level 5: growth control rate is above 85%) | 5 (Level 5: growth control rate is above 85%) | 5 (Level 5: growth control rate is above 85%) | 5 (Level 5: growth control rate is above 85%) |
| Cn1nnnc1NC(=O)c1ccnc(-c2ccc(C(F)(F)F)cc2)c1Cl [Compound 1-27] | 5 (Level 5: growth control rate is above 85%) | 5 (Level 5: growth control rate is above 85%) | 5 (Level 5: growth control rate is above 85%) | 5 (Level 5: growth control rate is above 85%) |
| Cn1nnnc1NC(=O)c1ccnc(-c2cccnc2F)c1Cl [Compound 1-127] | 5 (Level 5: growth control rate is above 85%) | 5 (Level 5: growth control rate is above 85%) | 5 (Level 5: growth control rate is above 85%) | 5 (Level 5: growth control rate is above 85%) |
| Cn1nnnc1NC(=O)c1ccnc(-c2ccc(F)cc2)c1-c1ccccc1 [Compound 1-199] | 5 (Level 5: growth control rate is above 85%) | 5 (Level 5: growth control rate is above 85%) | 5 (Level 5: growth control rate is above 85%) | 5 (Level 5: growth control rate is above 85%) |
